Several values for one entry are separate records, joined by “and”; a condition that tells them apart may be missing. Equal entries are not always repeated.
Experiments:
[1] = C14 hydroxyl replaced by electron withdrawing group; background statement; cited from earlier work
[2] = tested on: acute lymphoblastic leukemia T-cells (CCRF-CEM); assay: Inhibition of triptolide-SGC8C conjugate on the growth of cancer cells in vitro (absorbance, MTT); format: cell-based; conditions: replicates, listed as TP
Experimental: Cell lines: acute lymphoblastic leukemia T-cells (CCRF-CEM) and hepatocyte (L-02).
Fetal bovine serum and two antibiotics were added into the above media so as to form a final culture medium with a final content of 10% and 1%. Cells were incubated in an incubator at 37° C. and with 5% CO2. Growth conditions of the cells were constantly observed and cell counting was performed, and all the experiments were carried out on cells in logarithmic growth phase.
Study on anti-cancer activity: acute lymphoblastic leukemia T-cells (CCRF-CEM) and liver cells (L-02) were uniformly seeded into a 96-well plate in a low density (1×10^3˜1×10^4, depending on the specific cell lines) and were placed in an incubator overnight for adhering, the used medium was replaced by a serum free medium containing drug. […] The cells were then cultured in the incubator at 37° C. and with 5% CO2. Cell activities were measured by MTT. The operations were repeated for 3 times.

[3] = tested on: BxPC-3 pancreatic cancer cells; assay: Inhibition of triptolide-AS1411 conjugate on the growth of pancreatic cancer cells in vitro (absorbance, MTT); format: cell-based, human; conditions: for Absorbance (24 h) / Absorbance (48 h): replicate wells
Experimental: 5 pancreatic cancer cell lines (MiaPaCa-2, PANC-1, BxPC-3, SW1990 and ASPC-1) used in the experiments were all purchased from Shanghai Cell Bank.
Fetal bovine serum and two antibiotics were added into the above media so as to form a final culture medium with a final content of 10% and 1%. Cells were incubated in an incubator at 37° C. and with 5% CO2.
Pancreatic cancer cells (MiaPaCa-2, PANC-1, BxPC-3, SW1990 and ASPC-1) were uniformly seeded into a 96-well plate with a low density (1×10^3˜1×10^4, depending on the specific cell lines, and the conditions were referred to Shanghai Cell Bank). After placed in incubator for adhering overnight, the used medium was replaced by a serum free medium containing drug. […] The cells were then incubated in the incubator at 37° C. and with 5% CO2. Cell activities were measured by MTT. The operation was performed for 4 times.

[4] = set-up: species or system female nude mice; conditions: female, nude, mouse, in vivo
Text: BxPC-3 cells in logarithmic growth phase were used.
Samples A and B in 2.2.2 were used.

[5] = background statement; cited from earlier work
cancer cells = conditions: background statement; cited from earlier work

SMILES	cytotoxicity compared with TP [1]	Absorbance (CCRF-CEM) ([2]; 25 nM)	Absorbance (CCRF-CEM) ([2]; 50 nM)	Absorbance (CCRF-CEM) ([2]; 100 nM)	Absorbance (CCRF-CEM) ([2]; 200 nM)	Absorbance (24 h) ([3]; 25 nM)	Absorbance (48 h) ([3]; 25 nM)	Absorbance (24 h) ([3]; 50 nM)	Absorbance (48 h) ([3]; 50 nM)	Absorbance (24 h) ([3]; 100 nM)	Absorbance (48 h) ([3]; 100 nM)	Absorbance (24 h) ([3]; 200 nM)	Absorbance (48 h) ([3]; 200 nM)	effect on proliferation of pancreatic cancer cells ([3]; compared with blank references, concentration range 50 nM-200 nM, time and dose dependent)	time after administration at which drug concentration in blood reaches a maximum [4] [h]	solubility in water [5]	concentration that effectively inhibits the growth of the cancer cells (cancer cells) [ng/mL]
CC(C)[C@]12O[C@H]1[C@@H]1O[C@]13[C@]1(O[C@H]1C[C@H]1C4=C(CC[C@@]13C)C(=O)OC4)[C@@H]2F [Compound M-1]	greater than TP	–	–	–	–	–	–	–	–	–	–	–	–	–	–	–	–
CC(C)[C@]12O[C@H]1[C@@H]1O[C@]13[C@]1(O[C@H]1C[C@H]1C4=C(CC[C@@]13C)C(=O)OC4)[C@H]2F [Compound M-2]	greater than TP	–	–	–	–	–	–	–	–	–	–	–	–	–	–	–	–
CC(C)[C@]12O[C@H]1[C@@H]1O[C@]13[C@]1(O[C@H]1C[C@H]1C4=C(CC[C@@]13C)C(=O)OC4)[C@@H]2O [Triptolide]	–	0.7555 and 0.7582 and 0.755	0.5502 and 0.5441 and 0.5447	0.2608 and 0.2717 and 0.2802	0.1902 (2×) and 0.18	0.745 and 0.764 and 0.718 and 0.690	0.296 and 0.322 (2×) and 0.317	0.436 and 0.430 and 0.454 and 0.424	0.219 and 0.223 and 0.231 and 0.220	0.393 and 0.397 and 0.403 and 0.364	0.211 and 0.206 and 0.223 and 0.212	0.365 and 0.366 and 0.402 and 0.399	0.200 and 0.218 and 0.222 and 0.213	significantly inhibit	0.5	not soluble in water	2 to 10
